Reference: ChEMBL document CHEMBL1201862, “PubChem BioAssay data set” (2004)
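All cell lines were grown in 96-well plates and treated with compound for 48 hours. GI50 marks 50% less growth.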 Active and inactive are the calls of the source. Cut-off read from the data, not from the text of the source: active = GI50 up to about 1.1 µM and inactive = higher.

Key:
Experiment in all cases: NCI anticancer screen, dose series, 48 h
786-0 = system: 786-0
A498 = system: A498
A549 = system: A549
ACHN = system: ACHN
CAKI-1 = system: CAKI-1
CCRF-CEM = system: CCRF-CEM
COLO 205 = system: COLO 205
DLD-1 = system: DLD-1
DMS-114 = system: DMS-114
DMS-273 = system: DMS-273
EKVX = system: EKVX
HCC 2998 = system: HCC 2998
HCT-15 = system: HCT-15
HL-60 = system: HL-60
HOP-18 = system: HOP-18
HOP-62 = system: HOP-62
HT-29 = system: HT-29
IGROV-1 = system: IGROV-1
K562 = system: K562
KM-20L2 = system: KM-20L2
KM12 = system: KM12
LOX IMVI = system: LOX IMVI
LXFL 529 = system: LXFL 529
M14 = system: M14
M19-MEL = system: M19-MEL
MOLT-4 = system: MOLT-4
Malme-3M = system: Malme-3M
NCI-H226 = system: NCI-H226
NCI-H23 = system: NCI-H23
NCI-H460 = system: NCI-H460
NCI-H522 = system: NCI-H522
OVCAR-3 = system: OVCAR-3
OVCAR-4 = system: OVCAR-4
OVCAR-5 = system: OVCAR-5
OVCAR-8 = system: OVCAR-8
RPMI-8226 = system: RPMI-8226
RXF 393 = system: RXF 393
SF-268 = system: SF-268
SF-295 = system: SF-295
SF-539 = system: SF-539
SK-MEL-28 = system: SK-MEL-28
SK-MEL-2 = system: SK-MEL-2
SK-MEL-5 = system: SK-MEL-5
SK-OV-3 = system: SK-OV-3
SN12C = system: SN12C
SNB-19 = system: SNB-19
SNB-75 = system: SNB-75
SW-620 = system: SW-620
TK-10 = system: TK-10
U-251 = system: U-251
UACC-257 = system: UACC-257
UACC-62 = system: UACC-62
UO-31 = system: UO-31
XF498 = system: XF498
HCT-116 = system: HCT-116
HOP-92 = system: HOP-92
SNB-78 = system: SNB-78

In the case of `Cc1ccc(C)c(NC2=NC(=O)C(CC(=O)Nc3ccc(Cl)cc3Cl)S2)c1` (centres undefined), the GI50 (786-0) is reported as 51.8 µM (inactive), the GI50 (A498) is reported as 28.6 µM (inactive) and the GI50 (A549) is reported as > 100 µM (inactive). For the same compound, the GI50 (ACHN) was > 100 µM (inactive), the GI50 (CAKI-1) was > 100 µM (inactive) and the GI50 (CCRF-CEM) was 41.4 µM (inactive). The GI50 (COLO 205) was 88.7 µM (inactive), the GI50 (DLD-1) was > 100 µM (inactive) and the GI50 (DMS-114) was 42.6 µM (inactive). The GI50 (DMS-273) was 98.6 µM (inactive), the GI50 (EKVX) was > 100 µM (inactive) and the GI50 (HCC 2998) was 46 µM (inactive). For the same compound, the GI50 (HCT-15) was greater than 100 µM, the GI50 (HL-60) was > 100 µM (inactive) and the GI50 (HOP-18) was > 100 µM (inactive). The GI50 (HOP-62) was > 100 µM (inactive), the GI50 (HT-29) was > 100 µM (inactive) and the GI50 (IGROV-1) was > 100 µM (inactive). The GI50 (K562) was 80.2 µM (inactive), the GI50 (KM-20L2) was > 100 µM (inactive) and the GI50 (KM12) was 52.6 µM (inactive). For the same compound, the GI50 (LOX IMVI) was > 100 µM (inactive), the GI50 (LXFL 529) was 58.7 µM (inactive) and the GI50 (M14) was > 100 µM (inactive). The GI50 (M19-MEL) was 59.4 µM (inactive), the GI50 (MOLT-4) was 54.8 µM (inactive) and the GI50 (Malme-3M) was 70.5 µM (inactive). For the same compound, the GI50 (NCI-H226) was 28.1 µM (inactive), the GI50 (NCI-H23) was 43.8 µM (inactive) and the GI50 (NCI-H460) was > 100 µM (inactive). For the same compound, the GI50 (NCI-H522) was 24 µM (inactive), the GI50 (OVCAR-3) was 49.9 µM (inactive) and the GI50 (OVCAR-4) was 49.2 µM (inactive). The GI50 (OVCAR-5) was > 100 µM (inactive), the GI50 (OVCAR-8) was 66.1 µM (inactive) and the GI50 (RPMI-8226) was > 100 µM (inactive). The GI50 (RXF 393) was 31.2 µM (inactive), the GI50 (SF-268) was 37.8 µM (inactive) and the GI50 (SF-295) was > 100 µM (inactive). The GI50 (SF-539) was 41.4 µM (inactive), the GI50 (SK-MEL-28) was 77.6 µM (inactive) and the GI50 (SK-MEL-2) was 29.5 µM (inactive). The GI50 (SK-MEL-5) was > 100 µM (inactive), the GI50 (SK-OV-3) was > 100 µM (inactive) and the GI50 (SN12C) was > 100 µM (inactive). The GI50 (SNB-19) was 48.5 µM (inactive), the GI50 (SNB-75) was 44.7 µM (inactive) and the GI50 (SW-620) was > 100 µM (inactive). For the same compound, the GI50 (TK-10) was > 100 µM (inactive), the GI50 (U-251) was 36.1 µM (inactive) and the GI50 (UACC-257) was > 100 µM (inactive). For the same compound, the GI50 (UACC-62) was 28.9 µM (inactive), the GI50 (UO-31) was > 100 µM (inactive) and the GI50 (XF498) was 32.7 µM (inactive).
For `c1ccc(C2N=C(c3ccccn3)C(c3ccccn3)=NC2c2ccccc2)cc1` (centres undefined), the GI50 (786-0) was > 100 µM (inactive), the GI50 (A498) was > 100 µM (inactive) and the GI50 (A549) was > 100 µM (inactive). The GI50 (ACHN) was > 100 µM (inactive), the GI50 (CAKI-1) was > 100 µM (inactive) and the GI50 (CCRF-CEM) was > 100 µM (inactive). For the same compound, the GI50 (COLO 205) was > 100 µM (inactive), the GI50 (DLD-1) was > 100 µM (inactive) and the GI50 (DMS-114) was > 100 µM (inactive). For the same compound, the GI50 (DMS-273) was > 100 µM (inactive), the GI50 (EKVX) was > 100 µM (inactive) and the GI50 (HCC 2998) was > 100 µM (inactive). For the same compound, the GI50 (HCT-116) was > 100 µM (inactive), the GI50 (HCT-15) was greater than 100 µM and the GI50 (HL-60) was > 100 µM (inactive). For the same compound, the GI50 (HOP-18) was 84.7 µM (inactive), the GI50 (HOP-62) was 20 µM (inactive) and the GI50 (HOP-92) was > 100 µM (inactive). The GI50 (HT-29) was > 100 µM (inactive), the GI50 (IGROV-1) was > 100 µM (inactive) and the GI50 (K562) was > 100 µM (inactive). The GI50 (KM-20L2) was > 100 µM (inactive), the GI50 (KM12) was > 100 µM (inactive) and the GI50 (LOX IMVI) was > 100 µM (inactive). The GI50 (LXFL 529) was > 100 µM (inactive), the GI50 (M14) was > 100 µM (inactive) and the GI50 (M19-MEL) was > 100 µM (inactive). For the same compound, the GI50 (MOLT-4) was > 100 µM (inactive), the GI50 (Malme-3M) was > 100 µM (inactive) and the GI50 (NCI-H226) was > 100 µM (inactive). The GI50 (NCI-H23) was > 100 µM (inactive), the GI50 (NCI-H460) was > 100 µM (inactive) and the GI50 (NCI-H522) was > 100 µM (inactive). The GI50 (OVCAR-3) was > 100 µM (inactive), the GI50 (OVCAR-4) was > 100 µM (inactive) and the GI50 (OVCAR-5) was > 100 µM (inactive). The GI50 (OVCAR-8) was > 100 µM (inactive), the GI50 (RPMI-8226) was > 100 µM (inactive) and the GI50 (RXF 393) was > 100 µM (inactive). For the same compound, the GI50 (SF-268) was > 100 µM (inactive), the GI50 (SF-295) was > 100 µM (inactive) and the GI50 (SF-539) was > 100 µM (inactive). For the same compound, the GI50 (SK-MEL-28) was > 100 µM (inactive), the GI50 (SK-MEL-2) was > 100 µM (inactive) and the GI50 (SK-MEL-5) was > 100 µM (inactive). The GI50 (SK-OV-3) was > 100 µM (inactive), the GI50 (SNB-19) was 19.1 µM (inactive) and the GI50 (SNB-78) was > 100 µM (inactive). For the same compound, the GI50 (SW-620) was > 100 µM (inactive), the GI50 (TK-10) was > 100 µM (inactive) and the GI50 (U-251) was > 100 µM (inactive). For the same compound, the GI50 (UACC-257) was > 100 µM (inactive), the GI50 (UACC-62) was > 100 µM (inactive) and the GI50 (UO-31) was > 100 µM (inactive). For the same compound, the GI50 (XF498) was > 100 µM (inactive).
